Patent publication US11136301B2, “Broad spectrum antiviral compounds and uses thereof” (The Regents Of The University Of California, priority 2015, dated 2021)
“Also recorded” adds a separate entry of the source. Where two headings read alike, the source gives them in different places.

Experiments:
[1] = system: wild-type HIV-1 (HIV-1LAI) in MT-4 cells (permissive); test: Antiviral activity assay: wild-type HIV-1 in permissive MT4 cells, reverse transcriptase activity in culture supernatants; assay type: cell-based
[2] = system: HA-tagged A3G and GFP-tagged Vif or ΔVif in 293FT cells; test: Immunoblot of A3G and Vif levels in transfected 293FT cells; settings: 16 h; for A3G levels / Vif expression / upregulation of A3G and downregulation of Vif (immunoblots, FIG. 16): 293FT cells, 50 μM; for A3G levels / Vif expression: HA-A3G and GFP-Vif
[3] = system: wild-type HIV-1 (HIV-1LAI) in H9 cells (non-permissive); test: microbe, parasite or virus in culture; assay type: cell-based; settings: for antiviral activity against HIV-1 (in words): HIV-1 replication
[4] = Water solubility of choline salts; assay type: physicochemical
Zika virus = test: Zika viral replication inhibition; assay type: cell-based; settings: FIG. 20
[5] = system: Vif-A3G-HSP90-Cul5-CBF-β E3 ligase complex; test: Immunoprecipitation of IMA82-interacting proteins / E3 ligase complex; assay type: cell-based; settings: 293FT cells transfected with FLAG-HSP90 and HA-A3G, 16 h
Protocol: Cells were washed twice with PBS and lysed in IP lysis buffer (Thermo) or in a buffer composed of 50 mM Tris-HCl (pH 7.2), 150 mM NaCl, 1% NP-40, 10% glycerol, and protease inhibitor cocktail. Cell lysates ([…]) were incubated with 5 μl of rat anti-HA (Roche), rabbit anti-GFP (Cell Signaling), mouse anti-Hsp90 (Millipore), or rabbit anti-Cul5 (Sigma) plus 30 μl of protein A or G DYNABEADS® (Invitrogen) and rotated at RT for 2 h. The beads were washed three times with PBS containing 0.05% Tween 20. Each lysate was immunoprecipitated in triplicate and the beads were combined. Immune complexes were eluted by boiling in 5×SDS sample buffer. The proteins were separated by SDS-PAGE and analyzed by immunoblotting with antibodies to HA (A3G), GFP (Vif), Hsp90, Cul5, and CBF-β, as described above.

[6] = system: polyubiquitination of A3G and Vif; test: Ubiquitination assay in 293FT cells; assay type: cell-based; settings: 293FT-A3G-ΔVif cells (lacking Vif)
Protocol: Cells were incubated with or without 10 μM of IMA82, IMD55, or IMD64 for 16 h, and then with or without 10 μM of the calpain inhibitor ALLN for 4 h. The cells were washed once with PBS and lysed. Samples of 200 μg protein were immunoprecipitated by the addition of rat anti-HA (Roche) or mouse anti-GFP (Wako) antibodies (7 μg) and 50 μl protein G DYNABEADS® (Invitrogen) and rotated at RT for 2 h. The beads were washed three times with PBS containing 0.05% Tween 20 and boiled in 5×SDS sample buffer. The denatured proteins were resolved and electroblotted onto PVDF membranes. The membranes were probed with rabbit anti-ubiquitin, rabbit anti-HA, or rabbit anti-GFP antibodies, as described above.

[7] = system: A3G, Vif, p24, HSP90 in HIV-1LAI-infected H9 and MT4 cells; test: Protein analysis (immunoblot) of HIV-1 infected H9 and MT4 cells; assay type: cell-based
Protocol: Non-permissive (H9) and permissive (MT4) cells were treated with 1% DMSO, IMA82, or 17-DMAG overnight and then infected with HIV-1LAI for 5 h. Cells were washed three times with PBS and cultured in medium for 72 h in the presence of the same concentrations of DMSO, IMA82, or 17-DMAG. Total cell lysates were prepared with M-PER buffer containing 0.5% Triton X-100, 150 mM NaCl, 5 mM EDTA, and protease inhibitor cocktail. Protein concentrations were determined with the DC protein assay kit (Bio-Rad). Immunoblotting was performed as described above.

[8] = Human immunodeficiency virus 1, MT4, Table 1, wild-type HIV-1, permissive MT4 cells, read-out: Antiviral activity (IC50 μM) MT4 cells
[9] = Human immunodeficiency virus 1, MT4, Table 3, wild-type HIV-1, permissive MT4 cells, read-out: Antiviral activity (IC50 μM) MT4 cells
[10] = Human immunodeficiency virus 1, MT4, Table 6, wild-type HIV-1, permissive MT4 cells, read-out: Antiviral activity (IC50 μM) MT4 cells
[11] = Human immunodeficiency virus 1, MT4, text, permissive MT4 cells, read-out: IC50, non-specific antiviral activity in permissive cells
[12] = Human immunodeficiency virus 1, H9, read-out: Antiviral activity (IC50 μM) H9 cells, Table 1, wild-type HIV-1, non-permissive H9 cells
[13] = Human immunodeficiency virus 1, H9, read-out: Antiviral activity (IC50 μM) H9 cells, Table 3, wild-type HIV-1, non-permissive H9 cells
[14] = Human immunodeficiency virus 1, H9, read-out: Antiviral activity (IC50 μM) H9 cells, Table 6, wild-type HIV-1, non-permissive H9 cells
[15] = Human immunodeficiency virus 1, H9, read-out: IC50, anti-HIV-1 activity, non-permissive H9 cells
[16] = Human immunodeficiency virus 1, MT4, wild-type HIV-1 (HIV-1LAI), MT4 cells (permissive), RT activity in culture supernatants, compounds 1 to 50 μM, read-out: Antiviral activity (IC50 μM) MT4 cells
[17] = Human immunodeficiency virus 1, H9, read-out: Antiviral activity (IC50 μM) H9 cells, wild-type HIV-1 (HIV-1LAI), H9 cells (non-permissive), RT activity in culture supernatants, compounds 1 to 50 μM
[18] = Human immunodeficiency virus 1, MT4, Table 2, wild-type HIV-1, permissive MT4 cells, read-out: Antiviral activity (IC50 μM) MT4
[19] = Human immunodeficiency virus 1, H9, read-out: Antiviral activity (IC50 μM) H9, Table 2, wild-type HIV-1, non-permissive H9 cells
[20] = Human immunodeficiency virus 1, H9, read-out: Antiviral activity (IC50 μM) H9 Cells, Table 4, wild-type HIV-1, non-permissive H9 cells
[21] = Human immunodeficiency virus 1, H9, read-out: Antiviral activity (IC50 μM) H9 Cells, Table 7, wild-type HIV-1, non-permissive H9 cells
[22] = Human immunodeficiency virus 1, H9, read-out: Antiviral activity (IC50 μM) H9 cells, Table 5, wild-type HIV-1, non-permissive H9 cells
[23] = Human immunodeficiency virus 1, H9, read-out: Antiviral activity (IC50 μM) H9 cells, Table 8, wild-type HIV-1, non-permissive H9 cells

| Compound | IC50 [1, 8] [µM] | IC50 [1, 9] [µM] | melting point [°C] | A3G levels [2] | Vif expression [2] | IC50 [3, 12] [µM] | IC50 [3, 13] [µM] | IC50 [3, 15] [µM] | IC50 [1, 16] [µM] | IC50 [3, 17] [µM] | water solubility [4] | upregulation of A3G and downregulation of Vif (immunoblots, FIG. 16) [2] | antiviral activity against HIV-1 (in words) [3] | IC50 [3, 20] [µM] | IC50 [3, 21] [µM] | also measured |
| --- | --- | --- | --- | --- | --- | --- | --- | --- | --- | --- | --- | --- | --- | --- | --- | --- |
| COc1ccccc1-c1nnc(-c2ccccc2Sc2ccc([N+](=O)[O-])cc2)o1 [Compound 1b, 2-(2-Methoxyphenyl)-5-(2-((4-nitrophenyl)thio)phenyl)-1,3,4-oxadiazole] | 50 | 50 | 128 to 130 | up-regulation of A3G; also recorded: restoring A3G levels | downregulation of Vif; also recorded: down-regulated Vif expression | 6.8 | 6.8 | 6.8 | – | – | – | – | – | – | – | IC50 [1, 10]: 50 µM; IC50 [1, 11]: 50 µM; IC50 [3, 14]: 6.8 µM |
| COc1ccccc1-c1noc(-c2ccccc2Sc2ccc([N+](=O)[O-])cc2)n1 [Compound 1c, 3-(2-Methoxyphenyl)-5-(2-((4-nitrophenyl)thio)phenyl)-1,2,4-oxadiazole] | > 50 | > 50 | 138 | up-regulation of A3G; also recorded: restoring A3G levels | downregulation of Vif; also recorded: down-regulated Vif expression | 6.8 | 6.8 | 6.8 | – | – | – | – | – | – | – | – |
| COc1ccccc1-n1cc(-c2ccccc2Sc2ccc([N+](=O)[O-])cc2)nn1 [Compound 1d, 1-(2-Methoxyphenyl)-4-(2-((4-nitrophenyl)thio)phenyl)-1H-1,2,3-triazole] | > 50 | > 50 | 149 to 151 | up-regulation of A3G; also recorded: restoring A3G levels | downregulation of Vif; also recorded: down-regulated Vif expression | 1.2 | 1.2 | 1.2 | > 50 | 1.2 | – | – | – | – | – | IC50 [1, 10]: > 50 µM; antiviral activity in MT4 cells (specificity) ([1]; permissive MT4 cells, up to 50 μM): no activity; IC50 [3, 14]: 1.2 µM |
| COc1ccccc1-n1nncc1-c1ccccc1Sc1ccc([N+](=O)[O-])cc1 [Compound 1e, 1-(2-Methoxyphenyl)-5-(2-((4-nitrophenyl)thio)phenyl)-1H-1,2,3-triazole] | 25 | 25 | 139 to 141 | up-regulation of A3G; also recorded: restoring A3G levels | downregulation of Vif; also recorded: down-regulated Vif expression | 15 | 15 | 15 | – | – | – | – | – | – | – | IC50 [1, 11]: 25 µM |
| COc1ccccc1-n1cc(-c2ccccc2S(=O)(=O)c2ccc(C(=O)O)cc2)nn1 [Compound 2gy, 2-Hydroxy-N,N,N-trimethylethanaminium 4-((2-(1-(2-methoxyphenyl)-1H-1,2,3-triazol-4-yl)phenyl)sulfonyl)benzoate] | – | – | – | – | – | – | – | 0.2 | – | – | water-soluble | same mechanism as of RN-18; also recorded: same mechanism as observed for RN-18 and 1d | potent activities | – | – | – |
| COc1ccc(-n2cc(-c3ccccc3S(=O)(=O)c3ccc(C(=O)O)cc3)nn2)c(OC)c1 [Compound 4gy, 2-Hydroxy-N,N,N-trimethylethanaminium 4-((2-(1-(2,4-dimethoxyphenyl)-1H-1,2,3-triazol-4-yl)phenyl)sulfonyl)benzoate] | – | – | – | – | – | – | – | 0.7 | > 50 | – | water-soluble | – | potent activities | 0.7 | 0.7 | IC50 [1, 18]: > 50 µM; IC50 [3, 19]: 0.7 µM |
| COC(=O)c1ccc(Sc2ccccc2-c2cn(-c3cc(OC)ccc3OC)nn2)cc1 [Compound 5bx, Methyl 4-((2-(1-(2,5-dimethoxyphenyl)-1H-1,2,3-triazol-4-yl)phenyl)thio)benzoate] | – | – | – | – | – | – | – | 0.2 | > 50 | 0.2 | – | same mechanism as of RN-18; also recorded: same mechanism as observed for RN-18 and 1d | – | 0.2 | 0.2 | IC50 [1, 18]: > 50 µM; Zika viral replication (Zika virus): Zika viral replication inhibition; IC50 [3, 19]: 0.2 µM; IC50 [3, 22]: 0.2 µM; IC50 [3, 23]: 0.2 µM |
| COc1ccc(OC)c(-n2cc(-c3ccccc3S(=O)(=O)c3ccc(C(=O)O)cc3)nn2)c1 [Compound 5gy, 2-Hydroxy-N,N,N-trimethylethanaminium 4-((2-(1-(2,5-dimethoxyphenyl)-1H-1,2,3-triazol-4-yl)phenyl)sulfonyl)benzoate] | – | – | – | – | – | – | – | 0.5 | – | – | water-soluble | same mechanism as of RN-18; also recorded: same mechanism as observed for RN-18 and 1d | potent activities | 0.5 | 0.5 | – |
| COC(=O)c1ccc(Sc2ccccc2-c2cn(-c3c(OC)cccc3OC)nn2)cc1 [Compound 6bx, Methyl 4-((2-(1-(2,6-dimethoxyphenyl)-1H-1,2,3-triazol-4-yl)phenyl)thio)benzoate] | – | – | – | – | – | – | – | 0.2 | – | 0.2 | – | – | – | 0.2 | 0.2 | Zika viral replication (Zika virus): Zika viral replication inhibition; IC50 [3, 22]: 0.2 µM; IC50 [3, 23]: 0.2 µM |
| C=CCNC1=C2C[C@@H](C)C[C@H](OC)[C@H](O)[C@@H](C)/C=C(\C)[C@H](OC(N)=O)[C@@H](OC)/C=C\C=C(/C)C(=O)NC(=CC1=O)C2=O [Compound 17-AAG, 17-N-Allylamino-17-demethoxygeldanamycin, reference compound] | – | – | – | – | – | – | – | – | – | – | – | – | – | – | – | HSP90-A3G interaction, FLAG-HSP90 affinity purification [5]: remained in complexes with A3G; A3G ubiquitination [6]: ubiquitinated; A3G expression ([2]; 293FT cells co-expressing HA-A3G and Vif or ΔVif): dose-dependently decreased A3G expression; Vif expression / degradation ([2]; 293FT cells co-expressing HA-A3G and Vif): unaffected; HSP90 expression ([2]; transfected 293FT cells): no effect on HSP90 levels; A3G levels ([7]; HIV-1-infected H9 cells): dose-dependently decreased the expression of A3G; Vif levels ([7]; HIV-1-infected H9 cells): without affecting Vif expression; A3G expression ([7]; uninfected H9 cells, 16 h): decreased |
